Assay: mn = molality of the nth substance listed, in mol/kg
Settings: 298.15 K, Liquid, Frequency=10 MHz, Single path-length method

NCC(=O)N[C@@H](Cc1ccc(O)cc1)C(=O)NCC(=O)O [glycyl-L-tyrosylglycine] + O
speed of sound [m/s]
Settings | 10000 kPa | 20000 kPa | 40000 kPa | 60000 kPa | 80000 kPa | 100000 kPa | 120000 kPa
m1 = 0.02297 | 1516.3 | 1533.1 | 1566.7 | 1600.1 | 1633.5 | 1666.6 | 1699.5
m1 = 0.02401 | 1516.5 | 1533.2 | 1566.8 | 1600.3 | 1633.6 | 1666.8 | 1699.6
m1 = 0.02562 | 1516.7 | 1533.5 | 1567 | 1600.5 | 1633.9 | 1667 | 1699.8
m1 = 0.02676 | 1516.8 | 1533.6 | 1567.2 | 1600.7 | 1634 | 1667.1 | 1700
m1 = 0.02756 | 1516.9 | 1533.7 | 1567.3 | 1600.8 | 1634.1 | 1667.3 | 1700.1
m1 = 0.02905 | 1517 | 1533.9 | 1567.4 | 1601 | 1634.3 | 1667.5 | 1700.3

CC(C)C[C@H](NC(=O)CN)C(=O)NCC(=O)O [glycyl-L-leucylglycine] + O
speed of sound [m/s]
Settings | 10000 kPa | 20000 kPa | 40000 kPa | 60000 kPa | 80000 kPa | 100000 kPa | 120000 kPa
m1 = 0.02682 | 1517.5 | 1534.2 | 1567.7 | 1601.1 | 1634.4 | 1667.5 | 1700.2
m1 = 0.03524 | 1518.6 | 1535.4 | 1568.9 | 1602.3 | 1635.6 | 1668.7 | 1701.4
m1 = 0.04618 | 1520.2 | 1537 | 1570.6 | 1604 | 1637.2 | 1670.2 | 1702.9
m1 = 0.05878 | 1522.1 | 1538.9 | 1572.4 | 1605.8 | 1639 | 1672 | 1704.7
m1 = 0.06956 | 1523.7 | 1540.5 | 1574 | 1607.3 | 1640.6 | 1673.5 | 1706.2
m1 = 0.07978 | 1525.2 | 1542 | 1575.5 | 1608.8 | 1642 | 1674.9 | 1707.5

Source: the NIST ThermoML archive (doi:10.1016/j.jct.2016.03.032)
